{"source": "patent US12485110B2", "about": "“Use of ergothioneine for extending lifespan or improving healthspan” (NANJING NUTRABUILDING BIO-TECH CO., LTD., priority 2022, dated 2025)", "key": {"[1]": {"tested_on": "C. elegans", "test": "Lifespan assay (Automated Lifespan Machine)", "assay_type": "in vivo", "from_the_text": "N2 (Bristol) wild type strain has been used in this application.\nTo prevent chemical modification or metabolism of the test article by the food bacteria, worms were fed on a lawn of UV-killed bacteria (UV-i bacteria). An overnight culture of E. coli strain WP-2 was pelleted, washed, filtered, and irradiated. A suspension of UV-i bacteria was spotted on NGM agar containing Streptomycin to inhibit the growth of contaminating bacteria. The quantity and distribution of food bacteria were calibrated to ensure adequate access to food for the duration of assay while maintaining visibility of the worms.\nThe ALM used herein is based on the Caenorhabditis elegans lifespan machine published by Stroustrup et. al (Stroustrup, N. et al. The Caenorhabditis elegans Lifespan Machine. Nat Methods 10, 665-670 (2013)), with proprietary modifications to improve temperature stability and image acquisition. The scanner unit consists of a modified EPSON V850 and images are processed and analyzed using the ALM software (see id.). The machine time-of-death calls are trained and validated using the “storyboarding” feature of the ALM software.\nThe lifespan assay was designed and performed according to published and validated methods (Amrit, F. R. G., Ratnappan, R., Keith, S. A. & Ghazi, A. The C. elegans lifespan assay toolkit. Methods 68, 465-475 (2014)), using a modified version of the Automated Lifespan Machine (Stroustrup, N. et al. The Caenorhabditis elegans Lifespan Machine. Nat Methods 10, 665-670 (2013)). Worms were age synchronized by bleaching and eggs were plated directly onto NGM agar seeded with UV-i bacteria (Day 1, hatch). On Day 3, when the worms had reached the late L4 stage, they were transferred to dishes containing 100 μM 5-Fluorodeoxyuridine (FUdR) to suppress progeny. On day 5, the worms were washed off the dishes, and 30-50 worms were plated on each scanner dish. Plates were immobilized inverted on the bed of an Automated Lifespan Machine which scanned two images per hour of the plates continuously for the next 40 days.\nTime of death calls exported from the ALM software was analyzed and plotted using the Lifelines software package developed by Cam Davidson-Pilon et. al (Lifelines Version: v0.25.9). Additional analysis performed using the OASIS2 analysis software (Seong Kyu Han et. al. OASIS 2: online application for survival analysis 2 with features for the analysis of maximal lifespan and healthspan in aging research. Oncotarget. 7:56147-56152. (2016)).\nThe lifespan assay was initiated by expanding all replicate groups to more than 1000 worms, then synchronizing by bleaching and allowing larval worms to hatch and arrest. To eliminate the effect of bacterial metabolism and growth on lifespan of C. elegans (wild type, and not over express β-amyloid peptide) worms, synchronized worms were only exposed to dead food bacteria. To suppress progeny, worms were transferred to media containing 5-Fluorodeoxyuridine (FUdR) within 54-60 hours post-plating. Worms were inspected 24 and 48 hours after this transfer to confirm infertility. Finally, the worms were inspected for general health and morphology before transferring to scanner plates. The scanner plates were incubated for an additional 2 days and inspected again before loading onto scanners.\nTo obtain high-resolution lifespan data and eliminate confounding factors such as worm handling and operator bias, lifespan data was collected using an Automated Lifespan Machine (ALM) (Stroustrup, N. et al. The Caenorhabditis elegans Lifespan Machine. Nat Methods 10, 665-670 (2013)). Three biological replicates, derived from synchronizing three independently maintained lines of N2 worms, were distributed across instruments. Images of the worms were then collected for the next 35 days with no interruption or manipulations. Some plates were excluded after quality checks, but plate number and worm count for all replicates exceeded the threshold for statistical significance (Table 1, row 1)."}, "[2]": {"tested_on": "C. elegans", "test": "Movement and healthspan analysis (worm activity, morphology, circularity)", "assay_type": "in vivo", "settings": "0.1 mM", "from_the_text": "Worm movement was tracked from the images acquired by the ALM during the lifespan assay. Worm size and movement features were extracted and analyzed using custom software.\nTo measure healthspan, active worms were identified using the ALM scanner images from the lifespan assay (see Example 2). The worms' spatial location on the plate and their morphology were quantified throughout their lifespan to assess healthspan.\nWorm Activity serves as a proxy for animal health. Changes in spatial distribution of the worms between time points is used to derive aggregate movement for the population over time. Worm Activity is described by two complementary measurements of aggregate movement, Centroid Distance and Spatial Distribution: • Centroid Distance calculates a geometric center for each individual worm, and then measures the minimum collective distance that a group of worms moved between time points. It achieves measurement of the changes in spatial distribution between time-points. • Spatial Distribution uses changes in worm contours between time points to measure the changes in the spatial distribution of the worms' bodies. The normalized distribution of these distances in the population provides a measure of how much the group of worms altered their positions and posture on the plate between two time-points.\nFor both of these Activity metrics, a plot with higher numbers indicates good health, and all measures are normalized to fall between 0 and 1.\nWorm morphology is measured from the worm contours detected in the images. In the process of aging, worms become shorter and stouter over time and their shape is an indicator of their overall health and biological age. The Length is calculated from the central spline fitted to the worm contour and Width is measured from each worm's widest point. The worms' posture also changes with age as they lose the ability to maintain an elongated position. Average Circularity measures how close the shape and posture come to being enclosed by a circle.\nEach of these measures are obtained by averaging data for all active worms detected on a plate, then averaging across different replicate plates of the same condition. All measurements are based on worms that are still alive and moving at the time of quantification. All measures start when worms are placed on the scanner at day 3 of adulthood.\nAverage Circularity. The Average Circularity Assay indicates worm heath by describing how closely the shape and posture of the worms is enclosed within a circle. Healthy, active worms maintain an elongated, albeit sinusoidal posture. As unhealthy and aged worms lose muscle function, they increasingly adopt a curled, bunched, or folded state in addition to a stout and wrinkled morphology."}}, "note": "Entries after “also recorded” stand apart in the source; their conditions may differ."}
{"smiles": "Oc1ccc(C=Cc2cc(O)cc(O)c2)cc1", "note": "[Resveratrol, reference compound]", "values": [{"measurement": "Age in days at 25% mortality", "setting": "[1]; 0.1 mM", "result": 21.46, "unit": "days"}, {"measurement": "Age in days at 50% mortality", "setting": "[1]; 0.1 mM", "result": 27.29, "unit": "days"}, {"measurement": "Age in days at 75% mortality", "setting": "[1]; 0.1 mM", "result": 31.13, "unit": "days"}, {"measurement": "Age in days at 90% mortality", "setting": "[1]; 0.1 mM", "result": 35.89, "unit": "days"}, {"measurement": "Age in days at 100% mortality", "setting": "[1]; 0.1 mM", "result": 40.85, "unit": "days"}, {"measurement": "Lifespan / survival relative to vehicle control (in words)", "setting": "[1]; 0.1 mM positive control", "result": "significant positive increase in lifespan; also recorded: higher survival than the vehicle control at all timepoints"}, {"measurement": "Maximum lifespan", "setting": "[1]; 0.1 mM, 95th percentile of lifespans", "result": 37.3, "unit": "days"}, {"measurement": "Median lifespan", "setting": "[1]; 0.1 mM, N2 wild type, day 0 = day 1 of adulthood", "result": 27.3, "unit": "days"}, {"measurement": "Mean lifespan", "setting": "[1]; 0.1 mM, area under survival curve", "result": 26.3, "unit": "days"}, {"measurement": "Average circularity / posture (FIG. 7)", "setting": "[2]; late life", "result": "maintained a more elongated posture well into late life"}, {"measurement": "Aggregate movement (Centroid Distance and Spatial Distribution, FIGS. 5A-5B)", "setting": "[2]; over the duration of lifespan", "result": "more vigorous movement"}, {"measurement": "Worm morphology (size, FIGS. 6A-6C)", "setting": "[2]; over the lifespan", "result": "slightly smaller earlier in the assay but remained larger in the late life stages"}]}
